Here are results for 22 molecules from patent EP0638566B1, “5-Aminoflavone derivatives, their preparation and their use as antibacterial, anti-estrogenic and/or antitumor agent” (KYOWA HAKKO KOGYO CO., LTD., priority 1993, dated 1995).

Test [1] has as its system Bacillus subtilis #10107. Briefly: Antibacterial activity, agar dilution method. Format: cell-based. On the procedure: Antibacterial activity of compound (I) against Bacillus subtilis #10107 [Minimum Inhibition Concentration(MIC; µg/ml)] is shown in Table 6. Minimum Inhibition Concentration was determined by agar dilution method at pH 7.0.
On the technique in general: In agar dilution, organisms are placed on agar that contains the substance at set levels.

Test [2] relates to Human mammary cancer MCF-7 cell. Briefly: Human mammary cancer MCF-7 cell growth inhibition test (neutral red). Format: cell-based. On the procedure: Human mammary cancer MCF-7 cell growth inhibition test
Each 0.1 ml of MCF-7 cells which had been prepared to 5 x 10^4/ml using a medium (referred to as Medium B hereinafter) prepared by adding 10% bovine fetal serum, 10^-8M estradiol (manufactured by Sigma), 100 units/ml penicillin and 100 µg/ml streptomycin to RPMI1640 medium was distributed in each well of 96 well-microtiter plate. […] Supernatant was removed, each 0.1 ml of Medium B containing 0.02% neutral red was added to the residue, the mixture was cultured at 37 °C for 1 hour in a CO2 gas incubator and the cells were stained by neutral red dye. Supernatant was removed and the residue was washed once with a physiological saline. Then, the dye was extracted with 0.001N hydrochloric acid/30% ethanol and the absorbance at 550 nm was determined with a microplatereader.

Test [3] relates to estrogen-dependent human mammary cancer MCF-7. Briefly: Antitumor effects against MCF-7 tumor transplanted in nude mice. Format: in vivo, female BALB/c-nu/nu mice. As to conditions: Mus musculus, MCF7, 5 days per week for two weeks, read-out: T/C; for response vs control in vivo at 50 mg/kg: dose 50 mg/kg oral. The text has this: Antitumor effects against estrogen-dependent human mammary cancer MCF-7
The tumor fragment (2mm x 2mm x 2mm) of human hormone dependent mammary cancer MCF-7 was transplanted subcutaneously in the flank of female BALB/c-nu/nu mice (Nihon Crea), 7 to 9 weeks age. […] 3 to 4 Weeks after transplantation, mice of the tumor volume of 25 to 200 mm^3 were selected, and the test compounds were orally administered repeatedly to the groups (5 animals per group) for 5 days per a week, for total two weeks. In addition, estradiol propionate was administered again on the date of initial administration of the test compounds. Length and width of the tumor were determined every day, and the tumor volumes were calculated by means of ellipsoid approximation according to the following equation: […] [formula] The tumor volume at initial administration (Vo) and on the day of judgement (V) was calculated, and the tumor growth rate (V/Vo) was calculated. T/C value was obtained as the ratio of V/Vo value of treated group relative to that of control group.

Test [4] concerns estrogen-dependent human mammary cancer Br-10. Briefly: Antitumor effects against Br-10 tumor transplanted in nude mice. Particulars: 5 days per week for two to four weeks, judgement day 18. It is filed as in vivo, female BALB/c-nu/nu mice. The text has this:
Antitumor effects against estrogen-dependent human mammary cancer Br-10
The tumor fragment (2mm x 2mm x 2mm) of human hormone dependent mammary cancer Br-10 was transplanted subcutaneously in the flank of female BALB/c-nu/nu mice (Nihon Crea), 7 to 9 weeks age. […] 3 to 4 Weeks after transplantation, mice the tumor volume of which increased to 30 to 150 mm^3 were selected, and the test compounds were orally administered repeatedly to the groups (5 animals per group) for 5 days per a week, for total two to four weeks. Estradiol propionate was additionally administered on the date of initial administration of the test compounds and 14 days after the administration. Length and breadth of the tumor were determined every day, and the tumor volumes were calculated by means of ellipsoid approximation according to the above equation. The tumor volume at initial administration (Vo) and on the day of judgement (V) was calculated, and the tumor growth rate (V/Vo) was calculated. T/C value was obtained as the ratio of V/Vo value of treated group relative to that of control group.

Setting [5] is: Minimum Inhibition Concentration, agar dilution method at pH 7.0, read-out: MIC.
Where [6] appears, read: MCF7, MCF-7 cells, medium with 10^-8M estradiol, 72 hours, neutral red, absorbance at 550 nm, read-out: IC50.

pIC50: −log10 of the molar value. In brackets after ≈: the same amount, converted by molar mass. Structures can show the parent of a compound that is named as a salt. Where two headings read alike, the source gives them in different places.

On to `CN(C)CCCNc1c(F)c(N)c2c(=O)cc(-c3ccc(N)c(F)c3)oc2c1F` [Compound 18, 5-Amino-2-(4-amino-3-fluorophenyl)-7-[3-(dimethylamino)propylamino]-6,8-difluoro-4H-1-benzopyran-4-one], for which the MIC (in general, the least concentration at which growth counts as inhibited) in test [1] (setting [5]) came to 52.1 µg/mL (≈ 128 µM).

For `Nc1ccc(-c2cc(=O)c3c(N)c(F)c(CO)c(F)c3o2)cc1F` [Compound 39, 5-Amino-2-(4-amino-3-fluorophenyl)-6,8-difluoro-7-hydroxymethyl-4H-1-benzopyran-4-one], the pIC50 (in general, the IC50 on a negative log10 scale, so that one unit is a factor of ten) in test [2] (MCF7, 72 h) is 7.21. Also, the response vs control in vivo at 50 mg/kg in test [3] (judgement day 14) was 1.6%.

With `CCc1cc(-c2cc(=O)c3c(N)c(F)c(C)c(F)c3o2)ccc1N` [Compound 26, 5-Amino-2-(4-amino-3-ethylphenyl)-6,8-difluoro-7-methyl-4H-1-benzopyran-4-one], the pIC50 in test [2] (setting [6]) is 7.19.

As to `Nc1ccc(-c2cc(=O)c3c(N)c(F)c(Br)c(F)c3o2)cc1F` [Compound 6, 5-Amino-2-(4-amino-3-fluorophenyl)-7-bromo-6,8-difluoro-4H-1-benzopyran-4-one], the negative logarithm of the IC50 (pIC50) in test [2] (setting [6]) is 6.80. Also, the response vs control in vivo at 50 mg/kg in test [3] (judgement day 21) stood at 54%. In the case of `CN(C)Cc1c(F)c(N)c2c(=O)cc(-c3ccc(N)c(F)c3)oc2c1F` [Compound 42, Hydrochloride of 5-amino-2-(4-amino-3-fluorophenyl)-7-dimethylaminomethyl-6,8-difluoro-4H-1-benzopyran-4-one], the pIC50 in test [2] (MCF7, 72 h) was 7.14. For `CC(=O)OCc1c(F)c(N)c2c(=O)cc(-c3ccc(N)c(F)c3)oc2c1F` [Compound 44, 7-Acetoxymethyl-5-amino-2-(4-amino-3-fluorophenyl)-6,8-difluoro-4H-1-benzopyran-4-one], in test [2] (MCF7, 72 h), the pIC50 is 7.59. Further, the response vs control in vivo at 25 mg/kg in test [3] (dose 25 mg/kg oral, judgement day 14) came out at 6.1%. For the molecule `CCN(CC)CCCNc1c(F)c(C)c(F)c2oc(-c3ccc(N)c(F)c3)cc(=O)c12` [Compound 38, 2-(4-Amino-3-fluorophenyl)-5-[3-(diethylamino)propylamino]-6,8-difluoro-7-methyl-4H-1-benzopyran-4-one], the MIC in test [1] (setting [5]) stood at 13 µg/mL (≈ 30 µM). For `NCc1c(F)c(N)c2c(=O)cc(-c3ccc(N)c(F)c3)oc2c1F` [Compound 41, 5-Amino-2-(4-amino-3-fluorophenyl)-7-aminomethyl-6,8-difluoro-4H-1-benzopyran-4-one], the lowest concentration to inhibit growth in test [1] (pH 7) (MIC) was 3.26 µg/mL (≈ 9.72 µM). In test [2] (MCF7, 72 h), this molecule showed a pIC50 of 7.59. In test [3] (judgement day 18), the response vs control in vivo at 50 mg/kg worked out at 1.1%. For the molecule `CN(C)c1c(F)c(N)c2c(=O)cc(-c3ccc(N)c(F)c3)oc2c1F` [Compound 17, 5-Amino-2-(4-amino-3-fluorophenyl)-7-dimethylamino-6,8-difluoro-4H-1-benzopyran-4-one], the pIC50 in test [2] (setting [6]) was 7.41. Moreover, the T/C in test [4] (dose 25 mg/kg oral) came to 0.22. Turning to `Nc1ccc(-c2cc(=O)c3c(N)c(F)c(Cl)c(F)c3o2)cc1F` [Compound 5, 5-Amino-2-(4-amino-3-fluorophenyl)-7-chloro-6,8-difluoro-4H-1-benzopyran-4-one], in test [2] (setting [6]), the pIC50 is 6.68.

On to `Cc1c(F)c(N)c2c(=O)cc(-c3ccc(N)c(Cl)c3)oc2c1F` [Compound 24, 5-Amino-2-(4-amino-3-chlorophenyl)-6,8-difluoro-7-methyl-4H-1-benzopyran-4-one], for which the pIC50 in test [2] (setting [6]) is 7.04.

Consider `CN(C)CCOc1c(F)c(N)c2c(=O)cc(-c3ccc(N)c(F)c3)oc2c1F` [Compound 9, 5-Amino-2-(4-amino-3-fluorophenyl)-7-(2-dimethylaminoethoxy)-6,8-difluoro-4H-1-benzopyran-4-one], for which, in test [1] (pH 7), the minimum inhibitory concentration (MIC) came to 52.1 µg/mL (≈ 132 µM). The same molecule showed a pIC50 in test [2] (MCF7, 72 h) of 5.85. Moreover, the response vs control in vivo at 50 mg/kg in test [3] (judgement day 15) was determined as 42%. `CSc1c(F)c(N)c2c(=O)cc(-c3ccc(N)c(F)c3)oc2c1F` [Compound 10, 5-Amino-2-(4-amino-3-fluorophenyl)-6,8-difluoro-7-methylthio-4H-1-benzopyran-4-one] showed a pIC50 in test [2] (MCF7, 72 h) of 6.72.

For the molecule `CC(=O)c1c(F)c(N)c2c(=O)cc(-c3ccc(N)c(F)c3)oc2c1F` [Compound 22, 7-Acetyl-5-amino-2-(4-amino-3-fluorophenyl)-6,8-difluoro-4H-1-benzopyran-4-one], the MIC in test [1] (setting [5]) came to 13 µg/mL (≈ 37.3 µM). In the case of `Nc1ccc(-c2cc(=O)c3c(N)c(F)c(F)c(F)c3o2)cc1F` [Compound 34, 5-Amino-2-(4-amino-3-fluorophenyl)-6,7,8-trifluoro-4H-1-benzopyran-4-one], the pIC50 in test [2] (setting [6]) was 6.66. Still for that read-out and setting: as for `CCc1c(F)c(N)c2c(=O)cc(-c3ccc(N)c(F)c3)oc2c1F` [Compound 2, 5-Amino-2-(4-amino-3-fluorophenyl)-7-ethyl-6,8-difluoro-4H-1-benzopyran-4-one], the figure is 6.89; as for `COCc1c(F)c(N)c2c(=O)cc(-c3ccc(N)c(F)c3)oc2c1F` [Compound 43, 5-Amino-2-(4-amino-3-fluorophenyl)-6,8-difluoro-7-methoxymethyl-4H-1-benzopyran-4-one], 7.34. Take `C[S+]([O-])c1c(F)c(N)c2c(=O)cc(-c3ccc(N)c(F)c3)oc2c1F` (centres unmarked) [Compound 11, 5-Amino-2-(4-amino-3-fluorophenyl)-6,8-difluoro-7-methylsulfinyl-4H-1-benzopyran-4-one]: the pIC50 in test [2] (setting [6]) is 5.60. Still for that read-out and setting: as for `CCOC(=O)c1c(F)c(N)c2c(=O)cc(-c3ccc(N)c(F)c3)oc2c1F` [Compound 13, 5-Amino-2-(4-amino-3-fluorophenyl)-7-ethoxycarbonyl-6,8-difluoro-4H-1-benzopyran-4-one], the figure is 5.85. Turning to `COc1c(F)c(N)c2c(=O)cc(-c3ccc(N)c(F)c3)oc2c1F` [Compound 8, 5-Amino-2-(4-amino-3-fluorophenyl)-6,8-difluoro-7-methoxy-4H-1-benzopyran-4-one], the pIC50 in test [2] (MCF7, 72 h) is 7.00. Regarding `Cc1c(F)c(NCCCN(C)C)c2c(=O)cc(-c3ccc(N)c(F)c3)oc2c1F` [Compound 37, 2-(4-Amino-3-fluorophenyl)-5-[3-(dimethylamino)propylamino]-6,8-difluoro-7-methyl-4H-1-benzopyran-4-one], the MIC in test [1] (setting [5]) amounted to 13 µg/mL (≈ 32.1 µM).

In the case of `Nc1ccc(-c2cc(=O)c3c(N)c(F)c(N)c(F)c3o2)cc1F` [Compound 16, 5,7-Diamino-2-(4-amino-3-fluorophenyl)-6,8-difluoro-4H-1-benzopyran-4-one], the pIC50 in test [2] (MCF7, 72 h) was 8.11. The molecule further displayed a T/C in test [4] (dose 12.5 mg/kg oral) of 0.24. Besides, the response vs control in vivo at 12.5 mg/kg in test [3] (dose 12.5 mg/kg oral, judgement day 22) was determined as 18%.
